Where a SMILES comes first, the peptide text is derived from it.
Biological target: T1, PTB domain/c-erbB2 binding (GST-PTB domain of SHC; c-erbB2 from SKBR3 lysate) (Homo sapiens, UniProt P29353)
T1 construct: GST-PTB domain fusion proteins were expressed from recombinant baculovirus in sf9 cells; made in house; host or cells: Sf9 cells (recombinant baculovirus) for GST-PTB; c-erbB2 endogenous in SKBR3 cell lysate
T1 sequence (P29353 156-341): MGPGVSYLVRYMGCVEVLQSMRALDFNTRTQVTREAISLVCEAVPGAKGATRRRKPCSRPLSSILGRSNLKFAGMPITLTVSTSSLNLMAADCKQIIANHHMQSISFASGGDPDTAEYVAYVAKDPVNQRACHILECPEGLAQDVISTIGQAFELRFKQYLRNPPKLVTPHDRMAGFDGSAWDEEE
Assay: biochemical
Conditions: Inhibition (relative inhibition scale of IC50)

Which IC50 does the source give for `CC(C)C[C@H](NC(=O)[C@H](CC(N)=O)NC(=O)[C@H](CC(=O)O)NC(=O)[C@H](Cc1ccccc1)NC(=O)[C@H](C)NC(=O)[C@@H]1CCCN1C(=O)[C@H](CO)NC(=O)[C@H](Cc1ccccc1)NC(=O)[C@H](C)NC(=O)[C@@H]1CCCN1)C(=O)N[C@@H](Cc1ccc(O)cc1)C(=O)N[C@@H](Cc1ccc(OP(=O)(O)O)cc1)C(=O)N[C@@H](Cc1c[nH]c2ccccc12)C(=O)N[C@@H](CC(=O)O)C(=O)N[C@@H](CCC(N)=O)C(=O)N[C@@H](CC(N)=O)C(=O)N[C@@H](C)C(=O)N[C@@H](CO)C(=O)N[C@@H](CCC(=O)O)C(=O)N[C@@H](CCC(N)=O)C(=O)NCC(=O)O` [PAFSPAFDNLY (pY) WDQNASEQG, PAFSPAFDNLY(pY)WDQNASEQG] (HELM PEPTIDE1{P.A.F.S.P.A.F.D.N.L.Y.[O=C([C@H](Cc1ccc(OP(=O)(O)O)cc1)N[*:1])[*:2]].W.D.Q.N.A.S.E.Q.G}$$$$V2.0) here?
Its IC50 is 0.5 to 5 µM.

With `CC(C)C[C@H](NC(=O)[C@H](CCC(N)=O)NC(=O)[C@H](CC(=O)O)NC(=O)[C@H](Cc1ccccc1)NC(=O)[C@H](C)NC(=O)[C@@H]1CCCN1C(=O)[C@H](CO)NC(=O)[C@H](Cc1ccccc1)NC(=O)[C@H](C)NC(=O)[C@@H]1CCCN1)C(=O)N[C@@H](Cc1ccc(O)cc1)C(=O)N[C@@H](Cc1ccc(OP(=O)(O)O)cc1)C(=O)N[C@@H](Cc1c[nH]c2ccccc12)C(=O)N[C@@H](CC(=O)O)C(=O)N[C@@H](CCC(N)=O)C(=O)N[C@@H](CC(N)=O)C(=O)N[C@@H](CO)C(=O)N[C@@H](CO)C(=O)N[C@@H](CCC(=O)O)C(=O)N[C@@H](CCC(N)=O)C(=O)NCC(=O)O` [PAFSPAFDQLY (pY) WDQNSSEQG] (HELM PEPTIDE1{P.A.F.S.P.A.F.D.Q.L.Y.[O=C([C@H](Cc1ccc(OP(=O)(O)O)cc1)N[*:1])[*:2]].W.D.Q.N.S.S.E.Q.G}$$$$V2.0) as the molecule, how does the IC50 read?
The IC50 was > 50 µM.

`CC(C)C[C@H](NC(=O)[C@H](CC(N)=O)NC(=O)[C@H](CO)NC(=O)[C@H](Cc1ccccc1)NC(=O)[C@H](C)NC(=O)[C@@H]1CCCN1C(=O)[C@H](CO)NC(=O)[C@H](Cc1ccccc1)NC(=O)[C@H](C)NC(=O)[C@@H]1CCCN1)C(=O)N[C@@H](Cc1ccc(O)cc1)C(=O)N[C@@H](Cc1ccc(OP(=O)(O)O)cc1)C(=O)N[C@@H](Cc1c[nH]c2ccccc12)C(=O)N[C@@H](CC(=O)O)C(=O)N[C@@H](CCC(N)=O)C(=O)N[C@@H](CC(N)=O)C(=O)N[C@@H](CO)C(=O)N[C@@H](CO)C(=O)N[C@@H](CCC(=O)O)C(=O)N[C@@H](CCC(N)=O)C(=O)NCC(=O)O` [PAFSPAFSNLY (pY) WDQNSSEQG, PAFSPAFSNLY(pY)WDQNSSEQG] (HELM PEPTIDE1{P.A.F.S.P.A.F.S.N.L.Y.[O=C([C@H](Cc1ccc(OP(=O)(O)O)cc1)N[*:1])[*:2]].W.D.Q.N.S.S.E.Q.G}$$$$V2.0) was tested. Which IC50 did it give?
Its IC50 is 5 to 50 µM.

— patent US20020156236A1, “Binding sites for phosphotyrosine binding domains” (priority 1995, published 2002)
